Data as given in US12157730B2, “Heteroaryl derivative, method for producing same, and pharmaceutical composition comprising same as effective component” (VORONOI INC., priority 2019, dated 2024).

What follows are compounds tested against T1, Ba/F3 cell EGFR Exon20 ins NPH (Homo sapiens, UniProt P00533, INS773NPH) (assay: Ba/F3 cell proliferation suppression, EGFR Exon20 ins NPH). Details: GI50 class; Ba/F3 cell line with NPH inserted at Exon20 of EGFR; 72 hours.
T1 construct: expressed in transfected cells; host or cells: Ba/F3
Format: cell-based
Method in brief: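 Seed 3000–5000 cells/well; after 24 h add compound (12 conc., 0.3 nM–50 um final); incubate 72 h; add CellTiter-Glo, 10 min room temperature; read luminescence; GI50 from % growth vs control, triplicate.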

Row | Ba/F3 (NPH) Activity | Structure (SMILES)
1 | A (GI50 < 50 nM) | C=CC(=O)Nc1cc(Nc2cc(N3OCC[C@@H]3c3cccc(F)c3F)ncn2)c(OC)cc1N1CCC(N2CCN(C)CC2)CC1 [compound 921, N-(5-((6-((R)-3-(2,3-difluorophenyl)isoxazolidine-2-yl)pyrimidine-4-yl)amino)-4-methoxy-2-(4-(4-methylpiperazine-1-yl)piperidine-1-yl)phenyl) acrylamide]
2 | A (GI50 < 50 nM) | C=CC(=O)Nc1cc(Nc2cc(N3OCC[C@@H]3c3cccc4ccccc34)ncn2)c(OC)cc1N1CCC(N2CCN(C3CC3)[C@@H](C)C2)CC1 [Example 156, N-(2-(4-((S)-4-cyclopropyl-3-methylpiperazine-1-yl)piperidine-1-yl)-4-methoxy-5-((6-((R)-3-(naphthalene-1-yl)isoxazolidine-2-yl)pyrimidine-4-yl)amino)phenyl)acrylamide]
3 | C (500 nM ≤ GI50 < 5000 nM) | C=CC(=O)Nc1cc(Nc2cc(N3OCC[C@H]3c3c(F)cccc3F)ncn2)c(OC)cc1N1CCC(N2CCN(C)CC2)CC1 [compound 896, N-(5-((6-((S)-3-(2,6-difluorophenyl)isoxazolidine-2-yl)pyrimidine-4-yl)amino)-4-methoxy-2-(4-(4-methylpiperazine-1-yl)piperidine-1-yl)phenyl)acrylamide]
4 | A (GI50 < 50 nM) | C=CC(=O)Nc1cc(Nc2cc(N3OCC[C@@H]3c3cccc(C)c3F)ncn2)c(OC)cc1N1CCC(N2C[C@@H]3C[C@H]2CO3)CC1 [compound 362, N-(2-(4-((1S,4S)-2-oxa-5-azabicyclo[2.2.1]heptane-5-yl)piperidine-1-yl)-5-((6-((R)-3-(2-fluoro-3-methylphenyl)isoxazolidine-2-yl)pyrimidine-4-yl)amino)-4-methoxyphenyl) acrylamide]
5 | A (GI50 < 50 nM) | C=CC(=O)Nc1cc(Nc2cc(N3OCC[C@@H]3c3cccc(F)c3)ncn2)c(OC)cc1N1CC[C@@H](N(C)C)C1 [Example 247, N-(2-((R)-3-(dimethylamino)pyrolidine-1-yl)-5-((6-((R)-3-(3-fluorophenyl)isoxazolidine-2-yl)pyrimidine-4-yl)amino)-4-methoxyphenyl) acrylamide]
6 | B (50 nM ≤ GI50 < 500 nM) | C=CC(=O)Nc1cc(Nc2cc(N3OCC[C@@H]3c3cccc(OC)c3)ncn2)c(OC)cc1N1CCC(N2CCN(C3COC3)CC2)CC1 [Example 81, N-(4-methoxy-5-((6-((R)-3-(3-methoxyphenyl)isoxazolidine-2-yl)pyrimidine-4-yl)amino)-2-(4-(4-(oxetane-3-yl)piperazine-1-yl)piperidine-yl)phenyl) acrylamide]
7 | B (50 nM ≤ GI50 < 500 nM) | C=CC(=O)Nc1cc(Nc2cc(N3OCC[C@H]3Cc3cccnc3)ncn2)c(OC)cc1N1CCC(N2C[C@H]3C[C@@H]2CO3)CC1 [compound 990, N-(2-(4-((1R,4R)-2-oxa-5-azabicyclo [2.2.1]heptane-5-yl)piperidine-1-yl)-4-methoxy-5-((6-((R)-3-(pyridine-3-ylmethyl)isoxazolidine-2-yl)pyrimidine-4-yl)amino)phenyl)acrylamide]
8 | A (GI50 < 50 nM) | C=CC(=O)Nc1cc(Nc2cc(N3OCC[C@@H]3c3cccc(C#N)c3)ncn2)c(OC)cc1N1CCC(N2CCN(C3CC3)CC2)CC1 [Example 141, N-(5-((6-((R)-3-(3-cyanophenyl)isoxazolidine-2-yl)pyrimidine-4-yl)amino)-2-(4-(4-cyclopropylpiperazine-1-yl)piperidine-1-yl)-4-methoxyphenyl) acrylamide]
9 | A (GI50 < 50 nM) | C=CC(=O)Nc1cc(Nc2cc(N3OCC[C@@H]3c3cccc(C(F)(F)F)c3)ncn2)c(OC)cc1N1CCC(N2CCN(C3CC3)CC2)CC1 [Example 148, N-(2-(4-(4-cyclopropylpiperazine-1-yl)piperidine-1-yl)-4-methoxy-5-((6-((R)-3-(3-(trifluoromethyl)phenyl)isoxazolidine-2-yl)pyrimidine-4-yl)amino)phenyl)acrylamide]
10 | B (50 nM ≤ GI50 < 500 nM) | C=CC(=O)Nc1cc(Nc2cc(N3OCC[C@@H]3Cc3cccc(N(C)C)c3)ncn2)c(OC)cc1N1CCC(N2CCN(C3CC3)CC2)CC1 [compound 1044, N-(2-(4-(4-cyclopropylpiperazine-1-yl)piperidine-1-yl)-5-((6-((S)-3-(3-(dimethylamino)benzyl)isoxazolidine-2-yl)pyrimidine-4-yl)amino)-4-methoxyphenyl) acrylamide]
11 | B (50 nM ≤ GI50 < 500 nM) | C=CC(=O)Nc1cc(Nc2cc(N3OCC[C@@H]3c3ccc4ccccc4c3)ncn2)c(OC)cc1N1CCC(N(C)C)CC1 [compound 510, N-(2-(4-(dimethylamino)piperidine-1-yl)-4-methoxy-5-((6-((R)-3-(naphthalene-2-yl)isoxazolidine-2-yl)pyrimidine-4-yl)amino)phenyl)acrylamide]
12 | A (GI50 < 50 nM) | C=CC(=O)Nc1cc(Nc2cc(N3OCC[C@@H]3c3ccc(F)c(Cl)c3F)ncn2)c(OC)cc1N(C)CCN(C)C [compound 603, N-(5-((6-((R)-3-(3-chloro-2,4-difluorophenyl)isoxazolidine-2-yl)pyrimidine-4-yl)amino)-2-((2-(dimethylamino)ethyl)(methyl)amino)-4-methoxyphenyl) acrylamide]
13 | A (GI50 < 50 nM) | C=CC(=O)Nc1cc(Nc2cc(N3OCC[C@@H]3c3cccc(Cl)c3)ncn2)c(OC)cc1N1CCC(N2CCN(C3CCC3)CC2)CC1 [Example 185, N-(5-((6-((R)-3-(3-chlorophenyl)isoxazolidine-2-yl)pyrimidine-4-yl)amino)-2-(4-(4-cyclobutylpiperazine-1-yl)piperidine-1-yl)-4-methoxyphenyl) acrylamide]
14 | A (GI50 < 50 nM) | C=CC(=O)Nc1cc(Nc2cc(N3OCC[C@@H]3c3cccc(Cl)c3C)ncn2)c(OC)cc1N1CCC(N2CCN(CCC)CC2)CC1 [compound 582, N-(5-((6-((R)-3-(3-chloro-2-methylphenyl)isoxazolidine-2-yl)pyrimidine-4-yl)amino)-4-methoxy-2-(4-(4-propylpiperazine-1-yl)piperidine-1-yl)phenyl) acrylamide]
15 | A (GI50 < 50 nM) | C=CC(=O)Nc1cc(Nc2cc(N3OCC[C@@H]3c3ccc(Cl)cc3F)ncn2)c(OC)cc1N1CCC(N2CCN(C)CC2)CC1 [compound 454, N-(5-((6-((R)-3-(4-chloro-2-fluorophenyl)isoxazolidine-2-yl)pyrimidine-4-yl)amino)-4-methoxy-2-(4-(4-methylpiperazine-1-yl)piperidine-1-yl)phenyl) acrylamide]
16 | B (50 nM ≤ GI50 < 500 nM) | C=CC(=O)Nc1cc(Nc2cc(N3OCC[C@@H]3c3cc(F)ccc3F)ncn2)c(OC)cc1N(C)CCOC [compound 327, N-(5-((6-((R)-3-(2,5-difluorophenyl)isoxazolidine-2-yl)pyrimidine-4-yl)amino)-4-methoxy-2-((2-methoxyethyl) (methyl)amino)phenyl)acrylamide]
17 | A (GI50 < 50 nM) | C=CC(=O)Nc1cc(Nc2cc(N3OCC[C@@H]3c3cccc(F)c3F)ncn2)c(OC)cc1N1CCC(N2CCN(CC)CC2)CC1 [compound 922]
18 | B (50 nM ≤ GI50 < 500 nM) | C=CC(=O)Nc1cc(Nc2cc(N3OCC[C@@H]3c3cccc(C(F)(F)F)c3)ncn2)c(OC)cc1N1CCN(C2CC2)CC1 [compound 940, N-(2-(4-cyclopropylpiperazine-1-yl)-4-methoxy-5-((6-((R)-3-(3-(trifluoromethyl)pheyyl)isoxazolidine-2-yl)pyrimidine-4-yl)amino)phenyl) acrylamide]
19 | A (GI50 < 50 nM) | C=CC(=O)Nc1cc(Nc2cc(N3OCC[C@@H]3Cc3cccc(F)c3C)ncn2)c(OC)cc1N1CCN(C2CC2)CC1 [compound 1038, N-(2-(4-cyclopropylpiperazine-1-yl)-5-((6-((S)-3-(3-fluoro-2-methylbenzyl)isoxazolidine-2-yl)pyrimidine-4-yl)amino)-4-methoxyphenyl) acrylamide]
20 | B (50 nM ≤ GI50 < 500 nM) | C=CC(=O)Nc1cc(Nc2cc(N3OCC[C@@H]3c3ccccc3)ncn2)c(OC)cc1N1CCC(N2CCN(CCN(C)C)CC2)CC1 [compound 739, N-(2-(4-(4-(2-(dimethylamino)ethyl)piperazine-1-yl)piperidine-1-yl)-4-methoxy-5-((6-((R)-3-phenylisoxazolidine-2-yl)pyrimidine-4-yl)amino)phenyl) acrylamide]
21 | A (GI50 < 50 nM) | C=CC(=O)Nc1cc(Nc2cc(N3OCC[C@@H]3c3ccc(Cl)cc3)ncn2)c(OC)cc1N1CCC(N2CCN(C3CC3)CC2)CC1 [Example 58, N-(5-((6-((R)-3-(4-chlorophenyl)isoxazolidine-2-yl)pyrimidine-4-yl)amino)-2-(4-(4-cyclopropylpiperazine-1-yl)piperidine-1-yl)-4-methoxyphenyl) acrylamide]
22 | B (50 nM ≤ GI50 < 500 nM) | C=CC(=O)Nc1cc(Nc2cc(N3OCC[C@H]3c3c(F)ccc(F)c3Cl)ncn2)c(OC)cc1N1CCC(N2CCN(C3CC3)CC2)CC1 [compound 936, N-(5-((6-((S)-3-(2-chloro-3,6-difluorophenyl)isoxazolidine-2-yl)pyrimidine-4-yl)amino)-2-(4-(4-cyclopropylpiperazine-1-yl)piperidine-1-yl)-4-methoxyphenyl) acrylamide]
23 | A (GI50 < 50 nM) | C=CC(=O)Nc1cc(Nc2cc(N3OCC[C@@H]3c3ccc(F)c(Cl)c3)ncn2)c(OC)cc1N1C[C@H]2C[C@@H]1CO2 [compound 903, N-(2-((1R,4R)-2-oxa-5-azabicyclo [2.2.1]heptane-5-yl)-5-((6-((R)-3-(3-chloro-4-fluorophenyl)isoxazolidine-2-yl)pyrimidine-4-yl)amino)-4-methoxyphenyl) acrylamide]
